Assay results as given in publication PMC7115408 (European Journal of Medicinal Chemistry, 2014).
“Also recorded” adds a separate entry of the source. Read-outs that look alike come from different tables or passages of the source.

What was measured:
[1] = system: HBV; format: cell-based; settings: read-out: HBV EC50; DNA virion assay
[2] = system: influenza A virus H3N2; assay: Anti influenza screening, cytopathic effect and cytotoxicity assays; format: cell-based; settings: read-out: Influenza Type-A H3N2 EC50
[3] = system: HSV-2; assay: In vitro antiviral screening, cytopathic effect and neutral red assays; format: cell-based; settings: read-out: HSV-2 EC50
[4] = system: HCV; format: cell-based; settings: read-out: HCV EC50
[5] = system: influenza B virus; assay: Anti influenza screening, cytopathic effect and cytotoxicity assays; format: cell-based; settings: read-out: Influenza Type-B EC50
[6] = system: HSV-1; assay: In vitro antiviral screening, cytopathic effect and neutral red assays; format: cell-based; settings: read-out: HSV-1 EC50
[7] = system: influenza A virus H5N1; format: cell-based; settings: for EC50: read-out: Influenza Type-A H5N1 EC50
[8] = system: SARS-CoV; assay: microbe, parasite or virus in culture; format: cell-based, severe acute respiratory syndrome coronavirus (SARS-CoV); settings: for EC50: read-out: SARS-CoV EC50
[9] = system: WNV; assay: In vitro antiviral screening, visual and neutral red tests; format: cell-based, West Nile virus (WNV); settings: read-out: WNV EC50
[10] = system: influenza A virus H1N1; assay: Anti influenza screening, cytopathic effect and cytotoxicity assays; format: cell-based; settings: read-out: Influenza Type-A H1N1 EC50
[11] = system: Bacillus subtilis; assay: Well diffusion zone of inhibition, antibacterial; format: cell-based; settings: for Antibacterial activity against B. subtilis (in words): zone of inhibition compared to Ampicillin; for zone of inhibition at 250 µg/disc: Bacillus subtilis, 48 h, read-out: Diameter of inhibition zone, Bacillus subtilis
[12] = system: Escherichia coli; assay: Well diffusion zone of inhibition, antibacterial; format: cell-based; settings: for zone of inhibition at 250 µg/disc: Escherichia coli, 48 h, read-out: Diameter of inhibition zone, Escherichia coli
[13] = system: Asperigillus niger; assay: Well diffusion zone of inhibition, antifungal; format: cell-based; settings: Aspergillus niger, read-out: Diameter of inhibition zone, Asperigillus niger

“2-Oxo-4,6-di(2-thienyl)nicotinonitrile [Compound 1c]” gave an EC50 [1] greater than 100 µM, an EC50 [2] of 16 µM and an EC50 [3] greater than 12 µM. The EC50 [4] was greater than 100 µM, the EC50 [5] was greater than 100 µM and the EC50 [6] was greater than 12 µM. The EC50 [7] was greater than 100 µM, the EC50 [8] was greater than 100 µM and the EC50 [9] was greater than 4.6 µM. For the same compound, the EC50 [10] was 32 µM.
With “4-(4-Chlorophenyl)-2-oxo-6-(2-pyridyl)nicotinonitrile [Compound 1a]” the EC50 [1] was greater than 100 µM, the EC50 [2] was greater than 2.6 µM and the EC50 [3] was greater than 300 µM. The EC50 [4] was greater than 100 µM, the EC50 [5] was greater than 36 µM and the EC50 [6] was greater than 300 µM. The EC50 [7] was greater than 100 µM, the EC50 [8] was greater than 0.32 µM and the EC50 [9] was greater than 2.2 µM. For the same compound, the EC50 [10] was 26 µM.
“4-(4-Isopropylphenyl)-2-oxo-6-(2-thienyl)nicotinonitrile [Compound 1b]” was tested, and the EC50 [1] was greater than 100 µM, the EC50 [2] was 22 µM and the EC50 [3] was greater than 300 µM. The EC50 [4] was greater than 100 µM, the EC50 [5] was 46 µM and the EC50 [6] was greater than 300 µM. The EC50 [7] was 32 µM, the EC50 [8] was greater than 26 µM and the EC50 [9] was greater than 2.2 µM.
In the case of `CC(=O)OC[C@H]1O[C@@H](n2c(-c3ccccn3)cc(-c3ccc(Cl)cc3)c(C#N)c2=O)[C@H](OC(C)=O)[C@@H](OC(C)=O)[C@@H]1OC(C)=O` [Compound 2aAc], the “Anti influenza A (H5N1) activity (in words)” value [7] is reported as “good and slightly active and active” and the “Anti SARS-CoV activity (in words)” value [8] is reported as “slightly active by visual, but not neutral red test; also recorded: active”.
For `CC(C)c1ccc(-c2cc(-c3cccs3)n([C@@H]3O[C@H](CO)[C@@H](O)[C@H](O)[C@H]3O)c(=O)c2C#N)cc1` [Compound 2b, 1-(β-D-Glucopyranosyl)-4-(4-isopropylphenyl)-2-oxo-6-(2-thienyl)nicotinonitrile], the “Antibacterial activity against B. subtilis (in words)” value [11] was “moderate antibacterial activity”.
`CC(=O)OC[C@H]1O[C@@H](n2c(-c3cccs3)cc(-c3ccc(C(C)C)cc3)c(C#N)c2=O)[C@H](OC(C)=O)[C@@H](OC(C)=O)[C@@H]1OC(C)=O` [Compound 2bAc] was tested, and the “Antibacterial activity against B. subtilis (in words)” value [11] was “lower antibacterial activity”.
With `N#Cc1c(-c2cccs2)cc(-c2cccs2)n([C@@H]2O[C@H](CO)[C@@H](O)[C@H](O)[C@H]2O)c1=O` [Compound 2c, 1-(β-D-Glucopyranosyl)-2-oxo-4,6-di(2-thienyl)nicotinonitrile] the zone of inhibition at 250 µg/disc [12] was 0 mm, the zone of inhibition at 250 µg/disc [13] was 8 mm and the “Antibacterial activity against B. subtilis (in words)” value [11] was “lower antibacterial activity”.
With `CC(=O)OC[C@H]1O[C@@H](n2c(-c3cccs3)cc(-c3cccs3)c(C#N)c2=O)[C@H](OC(C)=O)[C@@H](OC(C)=O)[C@@H]1OC(C)=O` [Compound 2cAc] the EC50 ([8]; Severe acute respiratory syndrome coronavirus) was greater than 32 µM and the “Antibacterial activity against B. subtilis (in words)” value [11] was “lower antibacterial activity”.
For `N#Cc1c(-c2ccc(Cl)cc2)cc(-c2ccccn2)n([C@@H]2O[C@H](CO)[C@H](O)[C@H](O)[C@H]2O)c1=O` [Compound 3a, 4-(4-Chlorophenyl)-1-(β-D-galactopyranosyl)-2-oxo-6-(2-pyridyl)nicotinonitrile], the “Antibacterial activity against B. subtilis (in words)” value [11] was “lower antibacterial activity”.
In the case of `CC(=O)OC[C@H]1O[C@@H](n2c(-c3ccccn3)cc(-c3ccc(Cl)cc3)c(C#N)c2=O)[C@H](OC(C)=O)[C@@H](OC(C)=O)[C@H]1OC(C)=O` [Compound 3aAc], the zone of inhibition at 250 µg/disc [11] is reported as 1 mm and the “Antibacterial activity against B. subtilis (in words)” value [11] is reported as “lower antibacterial activity”.
In the case of `CC(C)c1ccc(-c2cc(-c3cccs3)n([C@@H]3O[C@H](CO)[C@H](O)[C@H](O)[C@H]3O)c(=O)c2C#N)cc1` [Compound 3b, 1-(β-D-Galactopyranosyl)-4-(4-isopropylphenyl)-2-oxo-6-(2-thienyl)nicotinonitrile], the zone of inhibition at 250 µg/disc [13] is reported as 8 mm and the “Antibacterial activity against B. subtilis (in words)” value [11] is reported as “lower antibacterial activity”.
`CC(=O)OC[C@H]1O[C@@H](n2c(-c3cccs3)cc(-c3ccc(C(C)C)cc3)c(C#N)c2=O)[C@H](OC(C)=O)[C@@H](OC(C)=O)[C@H]1OC(C)=O` [Compound 3bAc] was tested, and the zone of inhibition at 250 µg/disc [12] was 0 mm, the zone of inhibition at 250 µg/disc [11] was 1 mm and the “Antibacterial activity against B. subtilis (in words)” value [11] was “lower antibacterial activity”.
For `N#Cc1c(-c2cccs2)cc(-c2cccs2)n([C@@H]2O[C@H](CO)[C@H](O)[C@H](O)[C@H]2O)c1=O` [Compound 3c, 1-(β-D-Galactopyranosyl)-2-oxo-4,6-di(2-thienyl)-nicotinonitrile], the “Antibacterial activity against B. subtilis (in words)” value [11] was “lower antibacterial activity”.
With `N#Cc1c(-c2ccc(Cl)cc2)cc(-c2ccccn2)nc1OCCCCO` [Compound 5, 4-(4-Chlorolphenyl)-2-(4-hydroxybutyloxy)-6-(2-pyridyl)nicotinonitrile] the “Antibacterial activity against B. subtilis (in words)” value [11] was “lower antibacterial activity”.
In the case of `CC(=O)OCCCCOc1nc(-c2ccccn2)cc(-c2ccc(Cl)cc2)c1C#N` [Compound 5Ac], the “Antibacterial activity against B. subtilis (in words)” value [11] is reported as “lower antibacterial activity”.
With `CC(C)c1ccc(-c2cc(-c3cccs3)n(COCCO)c(=O)c2C#N)cc1` [Compound 7b, 1-[(2-Hydroxyethoxy)methyl]-4-(4-isopropylphenyl)-2-oxo-6-(2-thienyl)nicotinonitrile] the “Antibacterial activity against E. coli (in words)” value ([12]; zone of inhibition) was “no activity” and the “Antibacterial activity against B. subtilis (in words)” value [11] was “good activity”.
For `CC(=O)OCCOCn1c(-c2cccs2)cc(-c2cccs2)c(C#N)c1=O` [Compound 7cAc, 1-[(2-Acetoxyethoxy)methyl]-2-oxo-4,6-di(2-thienyl)nicotinonitrile], the “Antibacterial activity against B. subtilis (in words)” value [11] was “moderate antibacterial activity”.
With `N#Cc1c(-c2ccc(Cl)cc2)cc(-c2ccccn2)n(CCCO)c1=O` [Compound 8a, 4-(4-Chlorolphenyl)-1-(3-hydroxypropyl)-2-oxo-6-(2-pyridyl)nicotinonitrile] the “Antibacterial activity against B. subtilis (in words)” value [11] was “lower antibacterial activity”.
In the case of `C=CCOc1nc(-c2ccccn2)cc(-c2ccc(Cl)cc2)c1C#N` [Compound 9, 2-(Allyloxy)-4-(4-chlorolphenyl)-6-(2-pyridyl)nicotinonitrile], the “Antibacterial activity against B. subtilis (in words)” value [11] is reported as “lower antibacterial activity”.
